Test results from patent US9808003B2, “Herbicidally active 2-(substituted-phenyl)-cyclopentane-1,3-dione compounds and derivatives thereof” (Syngenta Limited, priority 2013, dated 2017).

Experiments:
Type in all cases: in vivo
[1] = tested on: Alopecurus myosuroides (ALOMY); assay: Test 1A glasshouse assay, pre-emergence herbicidal activity; conditions: 312 h, 250 g/ha, 13 days after application, read-out: Pre-emergence herbicidal activity (% phytotoxicity) ALOMY
Description: (§1) Seeds of a variety of test species were sown in standard soil in pots. After cultivation for one day (pre-emergence) or after 8 days cultivation (post-emergence) under controlled conditions in a glasshouse (at 24/16° C., day/night; 14 hours light; 65% humidity), the plants were sprayed with an aqueous spray solution derived from the formulation of the technical active ingredient in acetone/water (50:50) solution containing 0.5% Tween 20 (polyoxyethelyene sorbitan monolaurate, CAS RN 9005-64-5). The test plants were then grown under controlled conditions in a glasshouse (at 24/16° C., day/night; 14 hours light; 65% humidity) and watered twice daily. 13 days after application of the test herbicide, for pre- and post-emergence, the test was evaluated visually for percentage phytotoxicity to the plant (where 100%=total damage to plant; 0%=no damage to plant).
(§2) Test plants: Lolium perenne (LOLPE), Alopecurus myosuroides (ALOMY), Echinochloa crus-galli (ECHCG), and Avena fatua (AVEFA); these are all grassy monocotyledonous weeds.

Lolium perenne (LOLPE) [2] = assay: as above; conditions: 312 h, 250 g/ha, 13 days after application, read-out: Pre-emergence herbicidal activity (% phytotoxicity) LOLPE
Description: as §1, §2

Avena fatua (AVEFA) [3] = assay: as above; conditions: 312 h, 250 g/ha, 13 days after application, read-out: Pre-emergence herbicidal activity (% phytotoxicity) AVEFA
Description: as §1, §2

[4] = tested on: Echinochloa crus-galli (ECHCG); assay: as above; conditions: 312 h, 250 g/ha, 13 days after application, read-out: Pre-emergence herbicidal activity (% phytotoxicity) ECHCG
Description: as §1, §2

[5] = tested on: Alopecurus myosuroides (ALOMY); assay: Test 1A glasshouse assay, post-emergence herbicidal activity; conditions: Alopecurus myosuroides, 312 h, application rate 250 g/ha, 13 days after application, visual (100%=total damage; 0%=no damage), read-out: Post-emergence Herbicidal Activity (% Phytotoxicity) ALOMY
In short: (§3)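 Pots sown in standard soil; plants grown 8 days in glasshouse (24/16 °C day/night, 14 h light, 65% humidity), then sprayed with compound formulated in acetone/water (50:50) with 0.5% Tween 20. Regrown under same conditions, watered twice daily; visual % phytotoxicity scored 13 days after application (0 = none, 100 = total damage).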

Lolium perenne (LOLPE) [6] = assay: as above; conditions: Lolium perenne, 312 h, application rate 250 g/ha, 13 days after application, visual (100%=total damage; 0%=no damage), read-out: Post-emergence Herbicidal Activity (% Phytotoxicity) LOLPE
In short: as §3

Avena fatua (AVEFA) [7] = assay: as above; conditions: Avena fatua, 312 h, application rate 250 g/ha, 13 days after application, visual (100%=total damage; 0%=no damage), read-out: Post-emergence Herbicidal Activity (% Phytotoxicity) AVEFA
In short: as §3

[8] = tested on: Echinochloa crus-galli (ECHCG); assay: as above; conditions: Echinochloa crus-galli, 312 h, application rate 250 g/ha, 13 days after application, visual (100%=total damage; 0%=no damage), read-out: Post-emergence Herbicidal Activity (% Phytotoxicity) ECHCG
In short: as §3

| SMILES | inhibition at 250 g/ha [1] | inhibition at 250 g/ha (Lolium perenne (LOLPE) [2]) | inhibition at 250 g/ha (Avena fatua (AVEFA) [3]) | inhibition at 250 g/ha [4] | pest or weed control at 250 g/ha [5] | pest or weed control at 250 g/ha (Lolium perenne (LOLPE) [6]) | pest or weed control at 250 g/ha (Avena fatua (AVEFA) [7]) | pest or weed control at 250 g/ha [8] |
| --- | --- | --- | --- | --- | --- | --- | --- | --- |
| Cc1cc(C)c(C2C(=O)CC(CCNC(=O)c3ccc(F)cc3)C2=O)c(C)c1 (stereo not shown) [Compound A19] | 90% | 100% | 50% | 100% | 80% | 100% | 70% | 100% |
| Cc1cc(-c2ccc(F)cc2)cc(C)c1C1C(=O)CC(CCNC(=O)c2ccccn2)C1=O (stereo not shown) [Compound A32] | 100% | 100% | 80% | 100% | 90% | 100% | 100% | 100% |
| CC#Cc1cc(C)c(C2C(=O)CC(CCNC(=O)c3ccccn3)C2=O)c(C)c1 (stereo not shown) [Compound A33] | 90% | 100% | 80% | 100% | 90% | 100% | 100% | 100% |
| Cc1cc(C)c(C2C(=O)CC(CCNC(=O)c3c(Cl)c(C)nn3C)C2=O)c(C)c1 (stereo not shown) [Compound A145] | 90% | 100% | 40% | 90% | 100% | 90% | 90% | 90% |
| Cc1cc(C)c(C2C(=O)CC(CCNC(=O)c3c(Cl)nn(C)c3Cl)C2=O)c(C)c1 (stereo not shown) [Compound A159] | 90% | 100% | 80% | 100% | 100% | 100% | 90% | 90% |
